pIC50, pKi: −log10 of the molar value.
What was measured:
hERG channel = hERG channel (Homo sapiens (Human), UniProt Q12809); test: Test 6-1: inhibitory activity for hERG channel (auto patch clamp, Qpatch); format: cell-based; settings: whole cell auto patch clamp, hERG-CHO cells; read-out: hERG inhibition IC50
How it was run: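 Whole-cell patch clamp on an automated system using CHO cells stably expressing human hERG (IKr); 15 s pulse interval. Four increasing compound concentrations applied cumulatively; mean peak tail current from last 3 stimulations per concentration used. IC50 from inhibition versus pre-compound current, fitted by Hill equation.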

[1] = Test 4: metabolic stability test in human hepatic microsome; format: in vitro ADME; settings: 0.1 mg/mL microsome, 0.1 μmol/L compound, 37° C., 30 minutes
How it was run: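 LC-MS quantified remaining parent after 30 min, 37° C, in pH 7.4 25 mmol/L phosphate containing 0.1 mg/mL human hepatic microsomes, 3.2 mmol/L NADPH and 0.1 μmol/L test compound. Value given as −LN(residual ratio)/30/0.1, mL/min/mg protein.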

human 5-HT2A receptor [2] = target: T1, human 5-HT2A receptor (Homo sapiens (Human), UniProt P28223); test: Test 1: binding activity for human 5-HT2A receptor ([3H]Ketanserin, CHO cell membrane fraction)
Procedure: Test 1: Evaluation of Binding Activity for Human 5-HT1A Receptor, Human 5-HT2A Receptor, and Human D2 Receptor
Binding affinity of the present compound for human 5-HT1A receptor, human 5-HT2A receptor, and human D2 receptor was measured by the following procedures.
Each mixture was incubated at room temperature for 60 minutes. Then, the mixture was added quickly on a glassfiber filter plate (Multiscreen FB, Millipore, Inc.) coated with 0.3% aqueous polyethylenimine, and vacuum-filtered. Radioactivity remaining on the filter was measured with a liquid scintillation counter (PerkinElmer, Inc.). Binding inhibition rate was calculated from the following formula.
Ki of each compound was calculated from the following formula. Binding inhibition constant (Ki)=IC50/(1+S/Kd) wherein S is concentration of ligand; Kd is a binding dissociation constant of ligand to membrane, which is calculated from a saturated binding experiment conducted with the same cell membrane. A small Ki value means strong binding ability to a receptor.

human 5-HT1A receptor = human 5-HT1A receptor (Homo sapiens (Human), UniProt P08908); test: Test 2: agonist activity for human 5-HT1A receptor ([35S]GTPγS binding); format: biochemical; settings: agonist activity in the presence of 10 μM of compound, relative to 100 μmol/L 5-HT
How it was run: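 [35S]GTPγS binding read-out: after 60 min at room temperature with test compound in GDP buffer, human 5-HT1A receptor CHO membranes were vacuum-filtered and retained radioactivity scintillation-counted. Agonist activity calculated by formula.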

human 5-HT2A receptor [3] = target: T1, human 5-HT2A receptor; test: Test 3: antagonist activity for human 5-HT2A receptor (aequorin luminescence, CHO-K1 cells); format: cell-based; settings: CHO-K1 cells, 1 nmol/L 5-HT
Procedure: Test 3: Evaluation of Antagonist Activity for Human 5-HT2A Receptor
Aequorin, Gα16 protein, and each receptor were transiently expressed in CHO-K1 cells (Chinese hamster ovary). […] Each compound dissolved in DMSO was added thereto, and changes in luminescence were measured by FDSS/μCELL functional drug screening system (Hamamatsu Photonics K.K.). Antagonist activity was calculated from the following formula. Antagonist activity (%)=100×{(Luminescence of well in the presence of 1 nmol/L 5-HT−Luminescence of well containing solvent)−(Luminescence of well in the presence of test compound and 1 nmol/L 5-HT−Luminescence of well containing solvent)}/(Luminescence of well in the presence of 1 nmol/L 5-HT−Luminescence of well containing solvent)

human D2 receptor = human D2 receptor (Homo sapiens (Human), UniProt P14416); test: Test 1: binding activity for human D2 receptor ([3H]Spiperone, CHO cell membrane fraction); settings: human D2 receptor, [3H]Spiperone
How it was run: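 Compound displacement of [3H]ketanserin at 5-HT2A or [3H]spiperone at D2 was measured in CHO membrane fractions after 60 min at room temperature, with filtration and scintillation counting. IC50 was converted to Ki by Cheng–Prusoff using ligand concentration and Kd from saturation binding.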

Sequence of human 5-HT1A receptor (P08908 whole entry): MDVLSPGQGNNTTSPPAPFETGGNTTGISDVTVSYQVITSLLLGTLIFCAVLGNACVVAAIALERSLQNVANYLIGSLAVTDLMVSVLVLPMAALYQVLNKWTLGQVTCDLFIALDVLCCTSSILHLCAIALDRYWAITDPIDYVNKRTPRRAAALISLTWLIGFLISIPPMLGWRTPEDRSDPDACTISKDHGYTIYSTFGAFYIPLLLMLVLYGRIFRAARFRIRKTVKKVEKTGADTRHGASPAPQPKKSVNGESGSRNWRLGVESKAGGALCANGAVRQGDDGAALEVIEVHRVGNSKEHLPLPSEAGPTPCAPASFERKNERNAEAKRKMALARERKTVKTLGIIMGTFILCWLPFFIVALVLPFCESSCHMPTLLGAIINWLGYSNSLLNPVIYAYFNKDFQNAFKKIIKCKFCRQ
T1 sequence (P28223 whole entry): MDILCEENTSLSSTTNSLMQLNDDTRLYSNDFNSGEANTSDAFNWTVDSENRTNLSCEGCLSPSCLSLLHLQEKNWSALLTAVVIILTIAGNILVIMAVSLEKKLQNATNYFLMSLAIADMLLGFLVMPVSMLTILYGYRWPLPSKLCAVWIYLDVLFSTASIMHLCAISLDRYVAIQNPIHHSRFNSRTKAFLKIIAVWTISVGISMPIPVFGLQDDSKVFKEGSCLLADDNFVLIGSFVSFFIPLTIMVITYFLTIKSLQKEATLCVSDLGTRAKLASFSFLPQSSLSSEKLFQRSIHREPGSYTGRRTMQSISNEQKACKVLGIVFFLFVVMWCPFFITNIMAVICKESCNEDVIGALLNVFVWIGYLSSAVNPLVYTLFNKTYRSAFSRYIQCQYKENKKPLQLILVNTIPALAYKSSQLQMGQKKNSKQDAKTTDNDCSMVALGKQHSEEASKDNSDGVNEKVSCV
Sequence of hERG channel (Q12809 whole entry): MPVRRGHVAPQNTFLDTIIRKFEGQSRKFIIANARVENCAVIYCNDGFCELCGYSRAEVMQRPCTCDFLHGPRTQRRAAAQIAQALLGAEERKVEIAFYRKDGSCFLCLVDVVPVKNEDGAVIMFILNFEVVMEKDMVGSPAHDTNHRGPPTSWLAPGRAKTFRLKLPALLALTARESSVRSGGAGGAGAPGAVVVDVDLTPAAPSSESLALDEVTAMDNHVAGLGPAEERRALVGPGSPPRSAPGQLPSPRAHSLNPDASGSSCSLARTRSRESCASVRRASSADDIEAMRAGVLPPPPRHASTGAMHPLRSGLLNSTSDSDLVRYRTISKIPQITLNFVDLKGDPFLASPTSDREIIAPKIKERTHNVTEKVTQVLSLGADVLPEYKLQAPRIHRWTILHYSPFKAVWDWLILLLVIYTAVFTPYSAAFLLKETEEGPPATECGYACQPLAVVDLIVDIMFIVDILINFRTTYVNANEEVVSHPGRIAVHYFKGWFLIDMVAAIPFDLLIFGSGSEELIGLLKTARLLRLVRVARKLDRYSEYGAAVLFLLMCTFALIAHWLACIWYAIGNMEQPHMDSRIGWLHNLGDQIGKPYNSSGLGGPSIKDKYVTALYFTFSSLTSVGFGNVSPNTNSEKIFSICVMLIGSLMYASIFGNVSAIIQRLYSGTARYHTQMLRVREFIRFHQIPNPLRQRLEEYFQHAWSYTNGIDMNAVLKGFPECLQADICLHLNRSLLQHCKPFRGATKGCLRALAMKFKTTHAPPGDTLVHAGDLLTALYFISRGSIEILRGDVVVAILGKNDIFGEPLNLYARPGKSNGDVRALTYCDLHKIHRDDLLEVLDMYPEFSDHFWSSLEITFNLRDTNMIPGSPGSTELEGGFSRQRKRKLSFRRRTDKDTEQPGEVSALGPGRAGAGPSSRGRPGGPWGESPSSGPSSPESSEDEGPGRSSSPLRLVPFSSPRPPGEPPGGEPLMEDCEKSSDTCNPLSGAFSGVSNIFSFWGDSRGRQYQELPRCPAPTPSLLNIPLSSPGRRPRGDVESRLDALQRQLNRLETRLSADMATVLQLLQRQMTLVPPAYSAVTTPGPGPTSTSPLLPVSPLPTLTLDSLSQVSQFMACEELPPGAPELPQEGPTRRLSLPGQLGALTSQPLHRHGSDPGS
Sequence of human D2 receptor (P14416 whole entry): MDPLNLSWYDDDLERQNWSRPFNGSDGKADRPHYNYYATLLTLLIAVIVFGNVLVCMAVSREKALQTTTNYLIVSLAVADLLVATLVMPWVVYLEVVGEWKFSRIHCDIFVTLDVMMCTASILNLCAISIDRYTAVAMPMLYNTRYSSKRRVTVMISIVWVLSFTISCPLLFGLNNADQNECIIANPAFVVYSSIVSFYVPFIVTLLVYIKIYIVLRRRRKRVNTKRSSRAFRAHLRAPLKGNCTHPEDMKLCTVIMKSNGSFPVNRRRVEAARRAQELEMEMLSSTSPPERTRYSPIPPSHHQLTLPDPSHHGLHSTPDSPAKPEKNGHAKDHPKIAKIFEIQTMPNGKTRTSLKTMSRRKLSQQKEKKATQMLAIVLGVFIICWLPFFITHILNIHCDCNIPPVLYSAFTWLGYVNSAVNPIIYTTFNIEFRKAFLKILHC

Row | Structure (SMILES) | pIC50 (hERG channel) | Metabolic stability in human hepatic microsome [1] [mL/min/mg protein] | pKi (human 5-HT2A receptor [2]) | Emax at 10 µM (human 5-HT1A receptor) [%] | pIC50 (human 5-HT2A receptor [3]) | pIC50 (human 5-HT2A receptor [3]; aequorin luminescence) | pKi (human D2 receptor)
1 | Cn1cc2c(n1)CCN(CCN1CCN(c3noc4ccccc34)CC1)C2=O [Example 81] | < 5.00 | <0.01 | 8.00 | 60 | 7.08 | – | –
2 | CC1CN(CCN2CCC(c3noc4ccccc34)CC2)C(=O)c2ccn(C)c21 (stereo not shown) [Example 82] | 5.72 | 0.072 | 9.06 | 61 | 7.34 | – | –
3 | O=C1c2ncccc2CCC1CCN1CCN(c2nsc3ccccc23)CC1 (stereo not shown) [Example 25] | 6.40 | 0.398 | 8.52 | 57 | 8.26 | – | –
4 | O=C1c2ncccc2CCN1CCN1CCN(c2nsc3ccccc23)CC1 [Example 7] | 5.28 | 0.041 | 8.58 | 55 | 8.11 | – | –
5 | Cn1cc2c(n1)C(=O)N(CCN1CCN(c3nsc4ccccc34)CC1)CCC2 [Example 49] | 5.23 | 0.063 | 8.74 | 64 | 8.15 | – | –
6 | Cn1ccc2c1CCCN(CCN1CCN(c3nsc4ccccc34)CC1)C2=O [Example 165] | 5.10 | 0.265 | 8.92 | 44 | – | 7.81 | –
7 | CC1CN(CCN2CCN(c3noc4ccccc34)CC2)C(=O)c2ccn(C)c21 (stereo not shown) [Example 83] | 5.10 | 0.135 | 8.40 | 61 | 7.31 | – | –
8 | O=C1c2cncnc2CCN1CCN1CCC(c2noc3ccccc23)CC1 [Example 57] | 5.66 | 0.013 | 8.12 | 61 | 7.11 | – | –
9 | Cn1ncc2c1CCCC(CCN1CCN(c3nsc4ccccc34)CC1)C2=O (stereo not shown) [Example 31] | 5.92 | 0.305 | 9.33 | 40 | 8.57 | – | –
10 | O=c1c2cccnc2ccn1CCN1CCN(c2noc3ccccc23)CC1 [Example 115] | 5.30 | <0.05 | 8.97 | 37 | – | 8.37 | < 5.00
11 | Cc1cc2c(C3CCN(CCN4CCc5cccnc5C4=O)CC3)noc2cc1F [Example 6] | 5.66 | 0.061 | 7.17 | 31 | 6.19 | – | –
12 | O=C1c2cnc(C(F)(F)F)cc2CCN1CCN1CCN(c2nsc3ccccc23)CC1 [Example 110, 2-{2-[4-(1,2-Benzoisothiazol-3-yl)piperazin-1-yl]ethyl}-6-(trifluoromethyl)-3,4-dihydro-2,7-naphthyridin-1(2H)-one] | 5.62 | 0.353 | 8.59 | 65 | 7.37 | – | –
13 | Cc1nc2c(o1)C(=O)N(CCN1CCN(c3nsc4ccccc34)CC1)CC2 [Example 45] | 5.15 | 0.032 | 8.51 | 65 | 7.57 | – | –
14 | Cn1ncc2c1CCCC(CCN1CCC(c3noc4ccccc34)CC1)C2=O (stereo not shown) [Example 30] | 6.05 | 0.065 | 9.12 | 42 | 7.37 | – | –
15 | Cc1ccc2c(n1)C(=O)N(CCN1CCC(c3noc4ccccc34)CC1)CC2 [Example 184] | 6.10 | <0.05 | 7.57 | 59 | – | 7.02 | –
16 | Cc1nc2c(o1)C(=O)N(CCN1CCN(c3nsc4ccccc34)CC1)CCC2 [Example 46] | 5.43 | 0.018 | 8.55 | 58 | 7.28 | – | –
17 | Cc1noc2c1C(=O)N(CCN1CCN(c3nsc4ccccc34)CC1)CC2 [Example 34] | 5.60 | 0.124 | 9.15 | 54 | 8.10 | – | –
18 | Cc1c2c(nn1C)CCN(CCN1CCN(c3noc4ccccc34)CC1)C2=O [Example 171] | 5.18 | <0.05 | 8.59 | 56 | – | 7.34 | –
19 | Cc1noc2c1C(=O)N(CCN1CCN(c3nsc4ccccc34)CC1)CCC2 [Example 40] | 5.74 | 0.278 | 8.31 | 60 | 8.06 | – | –
20 | O=C1c2ncccc2CCC1CCN1CCN(c2noc3ccccc23)CC1 (stereo not shown) [Example 23] | 5.72 | 0.109 | 8.22 | 55 | 8.14 | – | –
21 | O=C1c2ncccc2CCN1CCN1CCC(c2noc3ccccc23)CC1 [Example 22, 7-{2-[4-(1,2-Benzoisoxazol-3-yl)piperidin-1-yl]ethyl}-6,7-dihydro-1,7-naphthyridin-8(5H)-one] | 5.72 | 0.039 | 8.36 | 52 | 7.03 | – | 5.59
22 | Cc1nc2c(o1)CCCN(CCN1CCN(c3nsc4ccccc34)CC1)C2=O [Example 52] | 5.31 | 0.043 | 8.33 | 77 | 7.92 | – | –
